Columns and labels:
[1] = biological target: T1, MAO-B (Homo sapiens, UniProt P27338); assay: Reversibility of MAO-B inhibition; type: biochemical; conditions: dilution assay, 30 min preincubation, Figure S3
T1 sequence (P27338 1-520): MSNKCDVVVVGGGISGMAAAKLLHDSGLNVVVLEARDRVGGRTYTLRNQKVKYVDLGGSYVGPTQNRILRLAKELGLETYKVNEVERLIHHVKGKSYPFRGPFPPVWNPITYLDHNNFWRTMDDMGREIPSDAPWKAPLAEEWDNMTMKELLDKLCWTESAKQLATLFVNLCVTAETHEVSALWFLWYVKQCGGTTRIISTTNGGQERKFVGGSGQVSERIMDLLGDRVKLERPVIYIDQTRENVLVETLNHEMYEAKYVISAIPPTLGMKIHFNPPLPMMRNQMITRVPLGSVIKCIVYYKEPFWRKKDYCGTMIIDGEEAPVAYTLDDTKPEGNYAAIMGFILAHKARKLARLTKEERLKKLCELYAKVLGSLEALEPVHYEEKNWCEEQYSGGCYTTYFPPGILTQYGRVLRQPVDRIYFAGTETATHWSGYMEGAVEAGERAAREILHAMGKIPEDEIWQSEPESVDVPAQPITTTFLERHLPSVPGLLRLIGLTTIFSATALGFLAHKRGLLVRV

[2] = biological target: human acetylcholinesterase (AChE) (Homo sapiens, UniProt P22303); assay: Cholinesterase assay; type: biochemical; conditions: for αKi ± SE, AChE: uncompetitive contribution, Lineweaver-Burk plots
Sequence of human acetylcholinesterase (AChE) (P22303 32-617 isoform P22303-2 limits assumed): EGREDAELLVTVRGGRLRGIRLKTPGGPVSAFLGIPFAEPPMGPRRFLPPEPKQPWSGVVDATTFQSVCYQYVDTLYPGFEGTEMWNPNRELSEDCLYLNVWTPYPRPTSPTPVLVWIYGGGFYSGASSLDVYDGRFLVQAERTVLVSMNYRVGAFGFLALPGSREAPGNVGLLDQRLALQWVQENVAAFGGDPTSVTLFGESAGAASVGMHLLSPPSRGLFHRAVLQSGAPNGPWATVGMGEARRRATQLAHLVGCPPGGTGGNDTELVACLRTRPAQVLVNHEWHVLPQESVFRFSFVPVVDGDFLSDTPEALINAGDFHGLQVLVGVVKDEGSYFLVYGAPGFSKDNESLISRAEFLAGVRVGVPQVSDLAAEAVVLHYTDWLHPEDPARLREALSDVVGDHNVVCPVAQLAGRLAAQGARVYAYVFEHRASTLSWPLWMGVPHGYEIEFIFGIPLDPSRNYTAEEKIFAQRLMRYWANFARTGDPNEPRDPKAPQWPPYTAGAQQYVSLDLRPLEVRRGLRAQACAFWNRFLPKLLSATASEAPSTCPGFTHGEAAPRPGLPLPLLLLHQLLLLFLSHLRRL

Compound	reversibility of MAO-B inhibition [1]	Ki [2]	αKi ± SE, AChE [2]
O=c1ccoc2ccc(OCCCCN3CCCCC3)cc12 [Compound 7, 6-(4-(piperidin-1-yl)butoxy)-4H-chromen-4-one]	reversibility of MAO-B inhibition was exemplarily demonstrated	–	–
CN1CCN(CCCCOc2ccc3occc(=O)c3c2)CC1 [Compound 15, 6-(4-(4-Methylpiperazin-1-yl)butoxy)-4H-chromen-4-one]	–	2.06 ± 0.56 µM	5.36 ± 0.70 µM
C[C@@H]1CCCN1CCCCOc1ccc2occc(=O)c2c1 [Compound 27]	–	9.23 ± 5.01 µM	19.0 ± 4.1 µM

Source: paper PMC6933783 (ACS Omega, 2019)
